In PubChem BioAssay (NCI):
“And” between values parts separate entries of the source, which are not always exact repeats. Equal entries are not always repeated.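 96-well plates; 48 h exposure; 5 concentrations. Endpoints by linear interpolation between flanking doses. Not reached: highest tested concentration assigned. Abbreviation: GI50, concentration required for 50% inhibition of growth. TGI: concentration producing complete growth inhibition.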

Tests used:
Assay in all cases: NCI anticancer screen, dose series, 48 h
HCT-116 colon = tested on: HCT-116 colon
HS 578T breast = tested on: HS 578T breast
KM12 colon = tested on: KM12 colon
MALME-3M melanoma = tested on: MALME-3M melanoma
NCI-H23 lung = tested on: NCI-H23 lung
NCI-H522 lung = tested on: NCI-H522 lung
OVCAR-3 ovarian = tested on: OVCAR-3 ovarian
OVCAR-5 ovarian = tested on: OVCAR-5 ovarian
SNB-75 CNS = tested on: SNB-75 CNS
SR leukemia = tested on: SR leukemia

Structure (SMILES)	GI50 (HCT-116 colon)	TGI (HCT-116 colon)	GI50 (HS 578T breast)	TGI (HS 578T breast)	GI50 (KM12 colon)	TGI (KM12 colon)	GI50 (MALME-3M melanoma)	TGI (MALME-3M melanoma)	GI50 (NCI-H23 lung)	TGI (NCI-H23 lung)	GI50 (NCI-H522 lung)	TGI (NCI-H522 lung)	GI50 (OVCAR-3 ovarian)	TGI (OVCAR-3 ovarian)	GI50 (OVCAR-5 ovarian)	TGI (OVCAR-5 ovarian)	GI50 (SNB-75 CNS)	TGI (SNB-75 CNS)	GI50 (SR leukemia)	TGI (SR leukemia)
CC(C)(C)OC(=O)CN1CCc2c(sc3ncnc(N/N=C/c4cccc5ccccc45)c23)C1	1.65 µM	6.73 µM	1.42 µM	16 µM	3.53 µM	9.8 µM	3.51 µM	8.69 µM	4.19 µM	17.4 µM	2.16 µM	12.4 µM	1 µM	3.92 µM	3.34 µM	8.41 µM	1.04 µM	14.4 µM	1.46 µM	15.2 µM
CN1CCN(CCNc2ccc(CO)c3sc4ccccc4c(=O)c23)CC1	–	8.24 µM	10.7 µM	31.8 µM	–	16.7 µM	–	12 µM	–	17.6 µM	–	8.89 µM	–	18.3 µM	–	21.2 µM	–	14.5 µM	–	19 µM
O=C(O)c1cscc1Cc1cccs1	–	> 100 µM	–	> 100 µM	–	> 100 µM	–	> 100 µM	–	> 100 µM	–	> 100 µM	–	> 100 µM	–	> 100 µM	–	> 100 µM	–	> 100 µM
C[C@]12C3CC[C@@]4(CO)C[C@]3(CCC1[C@](C)(C(=O)O)CC[C@@H]2O)CC4=O (stereo partly drawn)	> 100 µM	> 100 µM	> 100 µM	> 100 µM	> 100 µM	> 100 µM	> 100 µM	> 100 µM	> 100 µM	> 100 µM	> 100 µM	> 100 µM	> 100 µM	> 100 µM	> 100 µM	> 100 µM	> 100 µM	> 100 µM	> 100 µM	> 100 µM
NC(=S)N/N=C\c1nccc2c(N)cccc12	0.356 µM	> 46 µM	1.68 µM	> 100 µM	0.38 µM	> 100 µM	0.316 µM	3.08 µM	0.224 µM	> 94.8 µM	0.178 µM	0.509 µM	0.306 µM	> 100 µM	1.14 µM	> 100 µM	0.139 µM	87.5 µM	0.0398 µM	> 35.8 µM
O=C(Nc1ccc(Cl)cc1)c1cc(S(=O)(=O)Nc2nnc(-c3ccccc3)c(-c3ccccc3)n2)c(SCc2ccccc2)cc1Cl	19.8 µM	46.5 µM	20.6 µM	71.1 µM	21.9 µM	> 62 µM	34.2 µM	> 100 µM	24.6 µM	53.7 µM	43.9 µM	> 71.2 µM	17.1 µM	41.2 µM	36.4 µM	> 58 µM	–	–	28.9 µM	> 57.3 µM
Cc1cc(C)c2c(SCc3ccc(Cl)cc3Cl)nc(N)nc2n1	–	> 100 µM	–	> 100 µM	–	> 100 µM	–	> 100 µM	–	> 100 µM	–	57.1 µM	–	76.2 µM	–	> 100 µM	–	> 100 µM	–	> 100 µM
COC(=O)C1(C2CC/C(C)=C/CC/C(C)=C/CC[C@@]3(C)O[C@@H]3C2)CC1 (stereo partly drawn)	33 µM	> 100 µM	> 91.2 µM	> 100 µM	18.9 µM	43.5 µM	> 83.8 µM	> 100 µM	46.1 µM	> 100 µM	50.4 µM	> 100 µM	62.9 µM	> 100 µM	> 100 µM	> 100 µM	> 100 µM	> 100 µM	12.4 µM	> 51.9 µM
Cc1cccc2c1O/C(=C\c1ccc([N+](=O)[O-])o1)C2=O	0.251 µM	0.777 µM	2.25 µM	> 25 µM	1.38 µM	2.99 µM	0.971 µM	2.66 µM	1.35 µM	3.41 µM	0.222 µM	0.668 µM	0.689 µM	1.89 µM	1.79 µM	3.74 µM	1.64 µM	5.8 µM	0.12 µM	0.727 µM
CCOc1ccc2ccc3cccnc3c2n1	–	> 100 µM	–	> 100 µM	–	> 100 µM	–	> 100 µM	–	> 100 µM	–	> 100 µM	–	58.4 µM	–	> 100 µM	–	> 100 µM	–	73 µM
O=C(O)c1cc(Cc2ccc(O)c(C(=O)O)c2)ccc1O (tested in a mixture with another compound)	3.67 µM	14.2 µM	3.78 µM	40.4 µM	4.39 µM	19.1 µM	8.55 µM	23.9 µM	5.31 µM	20 µM	12.5 µM	33.8 µM	9.75 µM	22.3 µM	11.5 µM	27.1 µM	3.32 µM	22.4 µM	1.41 µM	8.67 µM
CCc1c(O)c2c(c(O)c1C(C)=O)C(=O)c1c(cc(O)c(C(=O)O)c1C(=O)O)C2=O	–	> 100 µM	–	> 100 µM	–	> 100 µM	–	> 100 µM	–	> 100 µM	–	> 100 µM	–	> 100 µM	–	> 100 µM	–	> 100 µM	–	> 100 µM
NC(Cc1ccnnc1)C(=O)O (stereo not drawn)	–	> 100 µM	–	> 100 µM	–	> 100 µM	–	> 100 µM	–	> 100 µM	–	> 100 µM	–	> 100 µM	–	> 100 µM	–	> 100 µM	–	> 100 µM
O=S(=O)(O)/C(=C\c1ccccc1)c1ccccc1 (tested in a mixture with another compound)	–	> 100 µM	–	> 100 µM	–	> 100 µM	–	> 100 µM	–	> 100 µM	–	> 100 µM	–	> 100 µM	–	> 100 µM	–	> 100 µM	–	> 100 µM
COc1ccc(/C=C(/C)[N+](=O)[O-])cc1	–	3.14 µM	–	27.3 µM	–	3.32 µM	–	4.59 µM	–	4.35 µM	–	1.81 µM	–	3.26 µM	–	9.47 µM	–	3.4 µM	–	3.56 µM
O=C1C(=O)c2ccccc2C(O)=C1CC=C(Cl)Cl	1.15 µM and 2.96 µM	29.7 µM and 44 µM and > 100 µM	14 µM and 13.3 µM	194 µM and > 100 µM	11.7 µM and 5.17 µM	> 82.8 µM and 161 µM and > 100 µM	16.2 µM and 28.2 µM	51.8 µM and 42.5 µM and 94.5 µM	11.6 µM and 12.7 µM	51.3 µM and 154 µM and 99.1 µM	8.02 µM	40.5 µM and 117 µM and 89.8 µM	9.76 µM and 15 µM	38.9 µM and 70.8 µM and 70.3 µM	17.2 µM and 28.3 µM	195 µM and > 100 µM	21.3 µM and 6.06 µM	65 µM and 169 µM and > 100 µM	0.924 µM and 4.89 µM	> 91.1 µM and 156 µM and > 100 µM
Nc1ccc2ccc(NS(=O)(=O)N3CCCCC3)cc2c1	0.514 µM	> 38.7 µM	0.396 µM	5.99 µM	0.273 µM	> 65.7 µM	0.489 µM	> 100 µM	1.53 µM	> 63.8 µM	0.205 µM	0.76 µM	–	–	–	> 100 µM	0.446 µM	> 100 µM	0.215 µM	> 100 µM
C(=C\c1nccc2c1[nH]c1ccccc12)/c1ccccc1	2.71 µM	10.7 µM	2.35 µM	9.34 µM	2.15 µM	11.3 µM	4.5 µM	27.7 µM	3.78 µM	> 100 µM	2.38 µM	7.94 µM	2.31 µM	6.65 µM	3.04 µM	> 100 µM	2.76 µM	21.9 µM	1.11 µM	6.84 µM
COc1ccc(/C=C/C(=O)c2cc3c(N)c(C(=O)Nc4ccccc4C)sc3nc2C)cc1	0.53 µM	> 50 µM	0.188 µM	> 50 µM	1.07 µM	4.8 µM	0.248 µM	> 50 µM	0.969 µM	> 50 µM	0.194 µM	> 50 µM	0.168 µM	0.955 µM	1.39 µM	> 50 µM	0.17 µM	1.85 µM	0.593 µM	> 50 µM
COc1cc(NCc2ccccc2O)c2ncccc2c1	16.6 µM	63.4 µM	24.2 µM	> 100 µM	22.5 µM	> 100 µM	14 µM	44.4 µM	22.5 µM	97.3 µM	10.1 µM	43 µM	20.6 µM	84.5 µM	80.3 µM	> 100 µM	8.52 µM	59.3 µM	5.91 µM	58.3 µM
CC(C)(C)[Si](C)(C)OCC1C=CC(n2cnc3c(N)ncnc32)O1 (stereo not drawn)	–	50.6 µM	–	> 100 µM	–	> 100 µM	–	> 100 µM	–	> 100 µM	–	> 100 µM	–	> 67.9 µM	–	> 100 µM	–	> 81 µM	–	60.8 µM
COc1ccc(Cl)cc1NC(=O)c1cccc([N+](=O)[O-])c1O	–	43.3 µM	–	70.2 µM	–	> 72 µM	–	19.3 µM	–	40.7 µM	–	38.6 µM	–	33 µM	–	> 100 µM	–	> 88.3 µM	–	> 76.1 µM
COc1cc(C2=NN(c3ccc(S(N)(=O)=O)cc3)C(c3ccc(Cl)cc3)C2)cc(OC)c1OC (stereo not drawn)	3.41 µM	> 100 µM	3.58 µM	> 100 µM	4.79 µM	> 100 µM	11.4 µM	> 100 µM	5.72 µM	> 100 µM	3.03 µM	> 100 µM	4.68 µM	> 100 µM	3.69 µM	> 100 µM	2.22 µM	> 100 µM	4.37 µM	> 100 µM
COc1cc2cc(Oc3ccc(NC(=O)Nc4ccc(Cl)c(C(F)(F)F)c4)cc3)c(C)nc2cc1OC	0.994 µM	3.84 µM	0.72 µM	2.31 µM	1.07 µM	3.85 µM	1.33 µM	5.71 µM	0.991 µM	3.79 µM	0.773 µM	2.65 µM	1.16 µM	4.45 µM	1.93 µM	6.22 µM	1.03 µM	4.9 µM	0.831 µM	2.65 µM
OCC#Cc1ccccc1C#Cc1ccc(C#Cc2ccccc2C#CCO)s1	24.2 µM	50.1 µM	22.3 µM	58.1 µM	15.1 µM	30.6 µM	–	–	18.3 µM	33.4 µM	11.7 µM	29.2 µM	12.8 µM	25.4 µM	22.1 µM	46.5 µM	48.1 µM	78.7 µM	36.9 µM	> 100 µM
C#Cc1cccc(Oc2ccc(NC(=O)CCl)cc2)c1	30.9 µM	> 82.5 µM	> 82.5 µM	> 82.5 µM	> 82.5 µM	> 82.5 µM	37.3 µM	> 82.5 µM	48.1 µM	> 82.5 µM	33.5 µM	> 82.5 µM	> 82.5 µM	> 82.5 µM	> 82.5 µM	> 82.5 µM	> 82.5 µM	> 82.5 µM	11.5 µM	> 82.5 µM
CC(O)(CNS(=O)(=O)c1ccccc1)c1ccccc1 (stereo not drawn)	–	> 100 µM	–	> 100 µM	–	> 100 µM	–	> 100 µM	–	> 100 µM	–	> 100 µM	–	> 100 µM	–	> 100 µM	–	> 100 µM	–	> 100 µM
O=[N+]([O-])/C=C\c1c[nH]c2ccc(OCc3ccccc3)cc12	–	3.27 µM	–	7.24 µM	–	8.86 µM	–	25.9 µM	–	7.33 µM	–	22.4 µM	–	22.8 µM	–	25.6 µM	–	–	–	4.91 µM
Cc1cc(C)cc(Nc2ccc([N+](=O)[O-])c(NCCN3CCOCC3)n2)c1	0.00222 µM and 0.0146 µM	> 100 µM	0.00306 µM and 0.0165 µM	48.4 µM	0.000947 µM	> 100 µM	16 µM	> 100 µM	0.00739 µM and 0.0275 µM	> 100 µM	0.000235 µM	–	0.000367 µM	0.00192 µM	0.0576 µM and 0.0361 µM	> 100 µM	–	–	–	> 100 µM
COc1cc(NCC2COc3c(ccc(OC)c3OC)C2=O)c([N+](=O)[O-])cc1OC (stereo not drawn)	–	> 100 µM	–	> 100 µM	–	> 100 µM	–	–	–	> 100 µM	–	> 100 µM	–	> 100 µM	–	> 100 µM	–	> 100 µM	–	> 100 µM
